Experimental data: patent publication US20100076010A1, “ALPHA 1A-ADRENOCEPTOR ANTAGONISTS” (CONCERT Pharmaceuticals, Inc., priority 2007, published 2010)

Test: Evaluation of metabolic stability in human liver microsomes
Format: in vitro ADME
Details: for half-life at 1 μM: in vitro t1/2, 0.5 mg/mL human liver microsomes, 1 μM test compound, 2 mM NADPH, pH 7.4, 37° C., 0-30 minutes, average of two experiments, read-out: Half-life (t1/2) (min) ± SD; for Increase over Silodosin (%): increase of HLM half-life relative to silodosin
Procedure: Evaluation of Metabolic Stability in Human Liver Microsomes. Human liver microsomes (“HLM”; 20 mg/mL) were obtained from Xenotech, LLC (Lenexa, Kans.). β-nicotinamide adenine dinucleotide phosphate, reduced form (NADPH), magnesium chloride (MgCl2), and dimethyl sulfoxide (DMSO) were purchased from Sigma-Aldrich.
Stock solutions of Compounds 108, 110, 111 and silodosin (7.5 mM) were separately prepared in DMSO. The 7.5 mM stock solutions were diluted to 50 μM in acetonitrile (ACN). The 20 mg/mL human liver microsomes were diluted to 0.625 mg/mL in 0.1 M potassium phosphate buffer, pH 7.4, containing 3 mM MgCl2. The diluted microsomes (375 μL) were added to wells of a 96-well deep-well polypropylene plate in triplicate. Ten μL of the 50 μM test compound solution was added to the microsomes and the mixture was pre-warmed for 10 minutes. Reactions were initiated by addition of 125 μL, of pre-warmed NADPH solution (8 mM NADPH in 0.1M potassium phosphate buffer, pH 7.4, containing 3 mM MgCl2). The final reaction volume was 0.5 mL and contains 0.5 mg/mL human liver microsomes, 1 μM test compound, and 2 mM NADPH in 0.1 M potassium phosphate buffer, pH 7.4, and 3 mM MgCl2. The reaction mixtures were incubated at 37° C., and 50 μL aliquots were removed at 0, 5, 10, 20, and 30 minutes and added to shallow-well 96-well plates which contain 50 μL of ice-cold ACN with internal standard to stop the reactions. The plates were stored at 4° C. for 20 minutes after which 100 μL of water was added to the wells of the plate before centrifugation to pellet precipitated proteins. Supernatants were transferred to another 96-well plate and analyzed for amounts of parent remaining by LC-MS/MS using an Applied Bio-systems API 4000 mass spectrometer.
The in vitro t1/2s for test compounds were calculated from the slopes of the linear regression of % parent remaining (ln) vs incubation time relationship. in vitro t1/2=0.693/k, where k=−[slope of linear regression of % parent remaining(ln) vs incubation time]. The experiment was performed twice. Data analysis was performed using Microsoft Excel Software.

| half-life at 1 μM | Increase over Silodosin (%) | Compound |
| --- | --- | --- |
| 44 ± 1.2 min | 21% | [2H]C([2H])(O)C([2H])([2H])C([2H])([2H])N1CCc2cc(C[C@@H](C)NC([2H])([2H])C([2H])([2H])Oc3ccccc3OC([2H])([2H])C(F)(F)F)cc(C(N)=O)c21 [Compound 108, (R)-1-(3-Hydroxy-(1,1,2,2,3,3-d6)-propyl)-5-(2-(2-(2-(2,2,2-trifluoro-1,1-d2-ethoxy)phenoxy)-(1,1,2,2-d4)-ethylamino)propyl)indoline-7-carboxamide] |
| 43 ± 10 min | 17% | [2H]C([2H])(N[C@H](C)Cc1cc2c(c(C(N)=O)c1)N(CCCO)CC2)C([2H])([2H])Oc1ccccc1OC([2H])([2H])C(F)(F)F [Compound 110, (R)-1-(3-hydroxypropyl)-5-(2-(2-(2-(2,2,2-d2-trifluoroethoxy)phenoxy)-d4-ethylamino)propyl)indoline-7-carboxamide] |
| 32 ± 0.1 min | 0% | [2H]C([2H])(O)C([2H])([2H])C([2H])([2H])N1CCc2cc(C[C@@H](C)NCCOc3ccccc3OCC(F)(F)F)cc(C(N)=O)c21 [Compound 111, (R)-1-(3-Hydroxy-(1,1,2,2,3,3-d6)-propyl)-5-(2-(2-(2-(2,2,2-trifluoroethoxy)-phenoxy)ethylamino)propyl)indoline-7-carboxamide] |
| 37 ± 0.1 min | – | C[C@H](Cc1cc2c(c(C(N)=O)c1)N(CCCO)CC2)NCCOc1ccccc1OCC(F)(F)F [Silodosin, (R)-1-(3-hydroxypropyl)-5-(2-(2-(2-(2,2,2-trifluoroethoxy)phenoxy)ethylamino)-propyl)indoline-7-carboxamide, reference compound] |
